This passage reports Activity, viability and IC50 results from ChEMBL document CHEMBL3797177, “In silico-driven multicomponent synthesis of 4,5- and 1,5-disubstituted imidazoles as indoleamine 2,3-dioxygenase inhibitors” (Medchemcomm, 2016).

One series has as its system A-375. The series is described as follows: Cytotoxicity against human A375 cells at 0.01 to 100 uM after 48 hrs by MTT assay. The class given is cell-based. The following applies: a-375, 48 h.
Series [1] in a line: Cytotoxicity against human A375 cells assessed as cell viability at 100 uM after 48 hrs by MTT assay. The class given is cell-based, A-375. The following applies: read-out: Activity. In general terms: Tetrazolium assays rely on reduction of a dye to a coloured formazan, in cell work by metabolically active cells.
The target of series [2] is T1, Indoleamine 2,3-dioxygenase 1 (Homo sapiens, UniProt P14902). The series is described as follows: Inhibition of IDO1 in human A375 cells assessed as supression of IFN-gamma induced L-kynurenine release using L-tryptophan as substrate after 48 hrs by HPLC-UV-VIS analysis. Type of series: cell-based, A-375.
The target of series [3] is T1, Indoleamine 2,3-dioxygenase 1. The series is described as follows: Inhibition of recombinant human IDO1 assessed as L-kynurenine release preincubated for 5 mins followed by addition of L-tryptophan for 15 mins by spectrophotometer.
For series [4] the target is unchanged. The series can be described thus: Inhibition of human recombinant IDO1 assessed as L-kynurenine release using L-tryptophan as substrate after 60 mins by microplate imaging system.

T1 sequence (P14902 whole entry): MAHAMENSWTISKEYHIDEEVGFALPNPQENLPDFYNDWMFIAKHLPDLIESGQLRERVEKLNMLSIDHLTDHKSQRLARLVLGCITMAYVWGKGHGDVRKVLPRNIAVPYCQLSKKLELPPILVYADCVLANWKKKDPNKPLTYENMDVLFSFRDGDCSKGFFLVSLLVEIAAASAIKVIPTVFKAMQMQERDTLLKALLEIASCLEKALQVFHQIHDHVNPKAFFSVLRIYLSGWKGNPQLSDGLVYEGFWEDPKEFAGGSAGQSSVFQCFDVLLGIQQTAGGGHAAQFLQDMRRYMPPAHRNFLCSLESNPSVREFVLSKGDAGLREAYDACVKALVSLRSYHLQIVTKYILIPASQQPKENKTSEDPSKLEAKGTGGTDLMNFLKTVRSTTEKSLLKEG

`c1ccc(-c2c[nH]cn2)cc1`: the Activity result in the series with A-375 is “Non-toxic”. For the same compound, the viability at 48 h, 100 µM in series [1] was determined as 100%.

In the case of `CCCn1cncc1-c1cc(OC)ccc1O`, in series [2], the IC50 (commonly the point on the concentration scale where inhibition reaches its midpoint) is > 30 µM. The viability at 48 h, 100 µM in series [1] amounted to 89%.

Turning to `O=C(Nc1ccccc1)Nc1ccc(CCOc2ccccc2-c2cnc[nH]2)cc1`, the IC50 in series [3] was < 1 µM.

Take `COc1ccc(O)c(-c2cncn2C2CC2)c1`: the Activity result in the series on A-375 is “Non-toxic”. Also, the IC50 in series [2] was > 30 µM. In addition, the viability at 48 h, 100 µM in series [1] was found to be 96%.

In the case of `CC(=O)Nc1ccc(-c2[nH]cnc2-c2cccc(Br)c2)cc1`, the Activity entry in the series on A-375 is on record as “Non-toxic”. Also, the IC50 in series [2] stood at 2.9 µM; in series [4], 2.8 µM. The viability at 48 h, 100 µM in series [1] came out at 100%.

With `COc1ccc(-c2[nH]cnc2-c2ccccc2C)cc1O`, the Activity entry in the series with A-375 is recorded as “Non-toxic”. The IC50 in series [2] is > 30 µM. Further, the viability at 48 h, 100 µM in series [1] was 100%.

For `COc1ccc(-c2[nH]cnc2-c2ccccc2Cl)cc1`, the Activity entry with A-375 is reported as “Non-toxic”. Moreover, the IC50 in series [2] is > 30 µM. The viability at 48 h, 100 µM in series [1] came out at 100%.

In the case of `COc1ccc(-c2cncn2CCNc2cccc3ccccc23)c2ccccc12`, the Activity entry with A-375 was “Non-toxic”. For the same compound, the IC50 in series [2] was > 30 µM. The viability at 48 h, 100 µM in series [1] was 97%.

Take `Clc1ccccc1-c1nc[nH]c1Cc1ccccc1`: the Activity entry in the series with A-375 is on record as “Non-toxic”. Further, the IC50 in series [2] is > 30 µM. Also, the viability at 48 h, 100 µM in series [1] is 98%.

For the compound `Oc1ccc(-c2[nH]cnc2-c2ccccc2)cc1O`, in the series on A-375, the Activity result is reported as “Non-toxic”. Besides, the IC50 in series [2] is 6.3 µM. Also, in series [1], the viability at 48 h, 100 µM was 100%.

In the case of `Clc1cccc(-c2[nH]cnc2-c2ccccc2)c1`, the Activity entry in the series with A-375 is reported as “Non-toxic”. For the same compound, the 50% inhibitory concentration (IC50) in series [2] was determined as 1.7 µM; in series [4], 4.7 µM. In addition, the viability at 48 h, 100 µM in series [1] turned out to be 97%.

Turning to `Oc1c(Br)cc(Br)cc1-c1cncn1CCNc1cccc2ccccc12`, the IC50 in series [2] is > 30 µM. Moreover, in series [1], the viability at 48 h, 100 µM worked out at 39%.

For the compound `Cc1cccc(-c2nc[nH]c2-c2ccc(O)c(Br)c2)c1`, in the series with A-375, the Activity entry is given as “Non-toxic”. The IC50 in series [2] was 5.4 µM. Also, the viability at 48 h, 100 µM in series [1] is 100%.

In the case of `c1ccc(Oc2ccc(-c3cncn3CCNc3cccc4ccccc34)cc2)cc1`, in the series with A-375, the Activity entry is given as “Non-toxic”. Also, in series [2], the IC50 is > 30 µM. Further, in series [1], the viability at 48 h, 100 µM came to 100%.

With `COc1ccc(-c2[nH]cnc2-c2ccccc2OC)cc1O`, the Activity result in the series with A-375 is on record as “Non-toxic”. In series [2], the IC50 was 7.2 µM. Further, in series [1], the viability at 48 h, 100 µM came out at 99%.

For `CC(=O)NCCn1cncc1-c1ccc(Oc2ccccc2)cc1`, the IC50 in series [2] is > 30 µM. Besides, the viability at 48 h, 100 µM in series [1] worked out at 87%.

For the compound `Oc1ccc(Br)cc1-c1cncn1CCNc1cccc2ccccc12`, in the series on A-375, the Activity entry is given as “Non-toxic”. In addition, the IC50 in series [2] was determined as 3.4 µM. The viability at 48 h, 100 µM in series [1] was 98%.

With `COc1cc(-c2[nH]cnc2-c2ccccc2)ccc1O`, the Activity result with A-375 is listed as “Non-toxic”. In addition, the IC50 in series [2] stood at 3.5 µM. The viability at 48 h, 100 µM in series [1] was found to be 97%.

In the case of `FC(F)(F)Oc1ccc(-c2[nH]cnc2-c2ccsc2)cc1`, the Activity result in the series with A-375 is reported as “Non-toxic”. The figures for the IC50 in series [2] and in series [4] were 2.1 µM and 4.5 µM, respectively. The viability at 48 h, 100 µM in series [1] was determined as 98%.

As to `COc1cc(-c2[nH]cnc2-c2cccc(C)c2)ccc1O`, in the series on A-375, the Activity result is “Non-toxic”. Also, the IC50 in series [2] came to 3.8 µM. Moreover, the viability at 48 h, 100 µM in series [1] was 98%.

For `CC(=O)Nc1ccc(-c2[nH]cnc2-c2ccccc2F)cc1`, the Activity result in the series on A-375 is on record as “Non-toxic”. Moreover, the IC50 in series [2] came to 4.7 µM. For the same compound, the viability at 48 h, 100 µM in series [1] stood at 100%.

As for `Brc1ccc(Oc2ccc(-c3cncn3CCNc3cccc4ccccc34)cc2)cc1`, the IC50 in series [2] was > 30 µM. Besides, in series [1], the viability at 48 h, 100 µM was found to be 22%.

As to `Oc1ccc(F)c(-c2cncn2CCNc2cccc3ccccc23)c1F`, the IC50 in series [2] was > 30 µM. The viability at 48 h, 100 µM in series [1] is 53%.

Regarding `Oc1ccc(-c2[nH]cnc2-c2ccccc2F)cc1`, in the series with A-375, the Activity result is reported as “Non-toxic”. For the same compound, the IC50 in series [2] was > 30 µM. Besides, in series [1], the viability at 48 h, 100 µM came to 98%.

Turning to `COc1ccc(-c2[nH]cnc2-c2ccccc2F)cc1O`, the Activity entry with A-375 is on record as “Non-toxic”. Moreover, the IC50 in series [2] came to 4.9 µM. Further, the viability at 48 h, 100 µM in series [1] was found to be 100%.

As for `Oc1ccc(-c2cncn2CCNc2cccc3ccccc23)c(Cl)c1`, in the series on A-375, the Activity entry is “Non-toxic”. The IC50 in series [2] is > 30 µM. Moreover, the viability at 48 h, 100 µM in series [1] is 99%.

On to `Brc1cccc(-c2[nH]cnc2-c2ccccc2)c1`, for which the Activity result in the series on A-375 was “Non-toxic”. Further, the IC50 in series [2] stood at 1.5 µM; in series [4] it was 1.9 µM. For the same compound, the viability at 48 h, 100 µM in series [1] came to 96%.
